Tests used:
[1] = system: serum corticosterone in dexamethasone-suppressed mice; test: in vivo Serum Corticosteroid Induction Assay; set-up: species or system FVB/N mice; details: for Percent reduction in serum corticosteroid: compared to unmodified mACTH(1–24), 1 μg s.c., blood one hour after administration
Experimental: An in vivo Serum Corticosteroid Induction Assay measures the level of corticosteroid or corticosterone in the blood stream of a subject. More specifically, the in vivo Serum Corticosteroid Induction Assay can include the following steps: first, an agent to suppress endogenous ACTH production was administered to a mouse subject, such as an intraperitoneal injection of dexamethasone; second, after waiting a suitable period of time for suppression of endogenous ACTH production (e.g., 1.5–2.0 hours), a test compound can be administered to the mouse by a suitable method, such as intraperitoneal or subcutaneous injection; and third, after waiting a suitable period of time (e.g., 1 hour) for action of the injected test compound, a blood sample can be taken from the subject and the level of serum corticosterone can be determined by a suitable method, such as a competitive radioimmunoassay using ^125I RIA kit (ICN, Costa Mesa, Calif.). Example 1 describes a murine in vivo Serum Corticosteroid Induction Assay in detail.
The corticosteroid or corticosterone secretion induced in vivo by an ACTH analog compound was compared to the level of corticosteroid secretion produced by an unmodified ACTH compound by measuring blood serum corticosteroid after administering either the ACTH or ACTH analog as test compounds. […] ACTH analog compositions with decreased function were identified by measuring corticosterone levels using standard radioimmunoassay (RIA) analysis on blood samples collected one hour after administering the mACTH(1–24) or ACTH analog compound to dexamethasone-suppressed mice. In FIG. 1, the potency of various ACTH analog peptides is expressed as per cent induction of corticosterone, with mouse ACTH being 100%. […] The percent of corticosterone induction 12 of ACTH analog Compounds in Samples 2–10 are shown as a percentage of the concentration of serum corticosterone 20 measured for unmodified mACTH(1–24) in the in vivo Serum Corticosteroid Adrenal Induction Assay. The structural modifications and measured percentage reduction in serum measured for Samples 2–10 in FIG. 1 are shown in Table 3 below.
The in vivo Serum Corticosteroid Induction Assay was performed according the following method. First, two to three month-old male FVB/N mice from our colony, five per group, were injected intraperitoneally with dexamethasone (0.4 mg/0.1 ml PBS per mouse; Sigma, St. Louis, Mo.) to suppress their endogenous ACTH production. See Hajos, G T et al., “Studies of the potency of polypeptides with ACTH action by a new method based on continuous measurement of plasma corticosterone,” Steroids Lipids Res 3:225–228 (1972), Costa, J L, et al., “Mutational analysis of evolutionarily conserved ACTH residues,” Gen Comp Endocrinol, 136:12–16 (2004), and Karpac, J, et al., “Development, Maintenance, and Function of the Adrenal Gland in Early Postnatal Pro-opiomelanocortin Null Mutant Mice,” Endocrinology (2005), published online ahead of print Feb. 24, 2005, all of which are incorporated herein by reference.
Second, ninety to one hundred twenty minutes later, the dexamethasone-suppressed mice were injected subcutaneously between the shoulder blades with either unmodified mACTH(1–24) or one of several ACTH analog peptide compounds (1 μg/0.1 mL PBS/0.5% BSA), or with vehicle alone (control) (0.1 mL PBS/0.5% BSA). The following ACTH analog peptide compounds were administered to separate mice: 1: murine ACTH1–24; 2: V26F,E30K; 3: P19W,K21E,Y23R; 4: E30K,P36R; 5: ALA19–24; 6: V26F,P36R; 7: P19W, K21E; 8: P19W,K21A,delY23; 9: P19W,K21A; 10: KRRP16-19RMW (AT814) (SEQ ID NO:20).
Third, one hour later, blood was collected within less than 1 minute from a small incision in the tail, and serum was flash-frozen and stored at −80° C. until assayed. Serum corticosterone was determined by competitive radioimmunoassay (^125I RIA kit; ICN, Costa Mesa, Calif.) according to the manufacturer's recommendations. One microliter of serum was used per assay sample. […]

[2] = system: corticosterone production by explanted mouse adrenal halves; test: in vitro Serum-free Adrenal Inhibition Assay; assay type: cell-based; details: in vivo by Example 1, in vitro by Example 4
Experimental: A series of separate in vitro Serum-Free Adrenal Corticosteroid Inhibition Assay were performed to identify ACTH analogs that inhibit ACTH-induced adrenal hormone production in vitro. The concentration of corticosterone was measured according to the procedure of Example 4 in a serum-free culture medium containing explanted adrenal membrane and unmodified ACTH, AT814 ACTH analog (SEQ ID NO:20), or a combination of ACTH and AT814 at 100 ng/mL each. […] Corticosterone levels were taken at 2.0 hours after the adrenal membrane was placed in the serum free M199 medium, and each corticosterone level in Table 5 is an average of five samples.
The in vitro Serum-free Adrenal Inhibition Assay was performed according the following method. First, adrenals were removed from mice, dissected free of fat, and cut in half. See Costa, J L, et al., “Mutational analysis of evolutionarily conserved ACTH residues,” Gen Comp Endocrinol. 136:12–16 (2004); and Weber, M M, et al., “Postnatal overexpression of insulin-like growth factor II in transgenic mice is associated with adrenocortical hyperplasia and enhanced steroidogenesis,” Endocrinology 140:1537–1543 (1999), incorporated herein by reference.
Second, each adrenal half was placed into an individual well of a 4-well dish, one dish per mouse. Adrenal halves were incubated at 5% CO2, 37° C., in 0.5 ml serum-free medium (M199; Invitrogen) for 30 minutes to equilibrate.
Third, medium was removed and replaced by 0.5 ml M199 containing ACTH, AT814, or both, at 100 ng/ml each; controls had no peptides added.
Fourth, after 2 hours of incubation, the medium was removed, pooled for all four halves from each mouse, and assayed by corticosterone using standard RIA methods. corticosterone was determined by competitive radioimmunoassay (^125I RIA kit; ICN, Costa Mesa, Calif.) according to the manufacturer's recommendations. One microliter of serum was used per assay sample. Samples were run in duplicates.

Substance	Percent reduction in serum corticosteroid [1] [%]	further results
(E30K, P36R)mACTH (SYSMEHFRWGKPVGKKRRPVKVYPNVAENKSAEAFRLEF; Corticotropin; UniProt P01193 124-162, looked up, variant E30K P36R) [Sample 4]	41.5	
(P19W, K21A)mACTH (SYSMEHFRWGKPVGKKRRWVAVYPNVAENESAEAFPLEF; Corticotropin; UniProt P01193 124-162, looked up, variant P19W K21A) [Sample 9]	83.4	
(P19W, K21A, delY23)mACTH (SYSMEHFRWGKPVGKKRRWVAVPNVAENESAEAFPLEF; Corticotropin; UniProt P01193 124-162, looked up, variant P19W K21A Y23*) [Sample 8]	76.0	
(P19W, K21E)mACTH (SYSMEHFRWGKPVGKKRRWVEVYPNVAENESAEAFPLEF; Corticotropin; UniProt P01193 124-162, looked up, variant P19W K21E) [Sample 7]	61.1	
(P19W, K21E, Y23R)mACTH (SYSMEHFRWGKPVGKKRRWVEVRPNVAENESAEAFPLEF; Corticotropin; UniProt P01193 124-162, looked up, variant P19W K21E Y23R) [Sample 3]	36.5	
(PVKVYP19-24AAAAA)mACTH [Sample 5]	51	in vitro activity compared with in vivo activity (FIG. 5) [2]: increased serum half life measured in vivo; in vivo activity in excess of the in vitro activity of unmodified mACTH (FIG. 5) ([1]; method of Example 1): about 50%; in vivo activity, % corticosterone induction relative to mACTH(1–24) (FIG. 5) ([1]; method of Example 1): greater relative to both mACTH and to other ACTH analogs
(V26F, E30K)mACTH (SYSMEHFRWGKPVGKKRRPVKVYPNFAENKSAEAFPLEF; Corticotropin; UniProt P01193 124-162, looked up, variant V26F E30K) [Sample 2]	18.3	
(V26F, P36R)mACTH (SYSMEHFRWGKPVGKKRRPVKVYPNFAENESAEAFRLEF; Corticotropin; UniProt P01193 124-162, looked up, variant V26F P36R) [Sample 6]	59.3	
